Measurements taken from patent US20160303102A1, “PROCESS FOR THE PRODUCTION OF DRUG FORMULATIONS FOR ORAL ADMINISTRATION” (Alrise Biosystems GmbH, priority 2013, published 2016).
Values after ≈ are worked out from the molar mass of the structure shown. Structures can show the parent of a compound that is named as a salt. Marks after values point to notes of the source that are not given here.

Legend:
[1] = 20° C.; cited from earlier work
[2] = Solubility of exemplary therapeutic agents in organic solvents
Description: In this context, the solubility is indicated as the weight of the dissolved substance (the solute) per volume of the solvent (i.e. the volume of solvent added to the solute).

Row | Solubility ([2]; solvent Acetone) | Solubility ([2]; solvent Benzylalcohol) | Solubility ([2]; solvent DMSO) | Solubility ([2]; solvent EMK) | Solubility ([2]; solvent Ethanol) | Solubility ([2]; solvent Ethyl acetate) | Solubility ([2]; solvent Ethyl formate) | Solubility ([2]; solvent Methyl acetate) | Solubility ([2]; solvent NMP) | Solubility ([2]; solvent THF) | SMILES | Solubility in water [1] | other results
1 | – | – | – | – | – | – | – | – | – | – | CCCOC=O [n- Propyl formate] | 28 g/L | –
2 | soluble | soluble | soluble | soluble | non-soluble | soluble | soluble | soluble | soluble | soluble | O=C1CCc2ccc(OCCCCN3CCN(c4cccc(Cl)c4Cl)CC3)cc2N1 [Aripiprazole] | – | Solubility ([2]; solvent Benzyl benzoate): soluble; Solubility ([2]; solvent Glycofurol): soluble; Solubility ([2]; solvent Isopropyl acetate): non-soluble; Solubility ([2]; solvent Isopropyl formate): soluble; Solubility ([2]; solvent Triacetin): non-soluble
3 | non-soluble | soluble | soluble | non-soluble | non-soluble | non-soluble | non-soluble | non-soluble | soluble | soluble | OCCOCCN1CCN(C2=Nc3ccccc3Sc3ccccc32)CC1 [Quetiapine fumarate, 2-(2-(4-dibenzo[b,f][1,4]thiazepine-11-yl-1-piperazinyl)ethoxy)ethanol] | – | Solubility ([2]; solvent Glycofurol): soluble; Solubility ([2]; solvent Triacetin): non-soluble
4 | – | – | – | – | – | – | – | – | – | – | COC(C)=O [Methyl acetate] | 319 g/L | –
5 | – | – | – | – | – | – | – | – | – | – | CCCCOC=O [Butyl formate] | slow decomposition | –
6 | – | – | – | – | – | – | – | – | – | – | CCOC=O [Ethyl formate] | 105*** g/L | –
7 | – | – | – | – | – | – | – | – | – | – | CCCOC(C)=O [n-Propyl acetate] | 21.2 g/L | –
8 | – | – | – | – | – | – | – | – | – | – | CC(=O)C(C)C [Methylisopropylketone] | 6 g/L (≈ 69.7 mM) | –
9 | – | – | – | – | – | – | – | – | – | – | CCOC(C)=O [Ethyl acetate] | 85.3 g/L | –
10 | – | – | – | – | – | – | – | – | – | – | CC(=O)OC(C)(C)C [tert. Butyl acetate] | insoluble | –
11 | – | – | – | – | – | – | – | – | – | – | CC(C)=O [Aceton] | soluble | –
12 | non-soluble | non-soluble | soluble | non-soluble | non-soluble | non-soluble | non-soluble | non-soluble | soluble | non-soluble | O=C(c1ccc(OCCN2CCCCC2)cc1)c1c(-c2ccc(O)cc2)sc2cc(O)ccc12 [Raloxifene HCl, [6-hydroxy-2-(4-hydroxyphenyl)-benzothiophen-3-yl]-[4-[2-(1-piperidyl)ethoxy]phenyl]-methanone] | – | Solubility ([2]; solvent Benzyl formate): non-soluble; Solubility ([2]; solvent Dichloromethane): non-soluble; Solubility ([2]; solvent Isopropyl acetate): non-soluble; Solubility ([2]; solvent Isopropyl formate): non-soluble; Solubility ([2]; solvent Propyl formate): non-soluble
13 | soluble | soluble | soluble | soluble | non-soluble | soluble | soluble | soluble | soluble | soluble | CC(C)c1nc(N(C)S(C)(=O)=O)nc(-c2ccc(F)cc2)c1/C=C/[C@@H](O)C[C@@H](O)CC(=O)O [Rosuvastatin Ca, (3R,5S,6E)-7-[4-(4-fluorophenyl)-2-(N-methylmethanesulfonamido)-6-(propan-2-yl)pyrimidin-5-yl]-3,5-dihydroxyhept-6-enoic acid] | – | Solubility ([2]; solvent Glycofurol): soluble; Solubility ([2]; solvent Isopropyl acetate): non-soluble; Solubility ([2]; solvent Isopropyl formate): non-soluble; Solubility ([2]; solvent Triacetin): non-soluble
14 | – | – | – | – | – | – | – | – | – | – | COC(=O)OC [Dimethyl Carbonate] | 139 g/L (≈ 1540 mM) | –
15 | – | – | – | – | – | – | – | – | – | – | ClCCl [Dichlormethan] | 20 g/L (≈ 235 mM) | –
16 | soluble | soluble | soluble | soluble | soluble | soluble | soluble | soluble | soluble | soluble | CN1C[C@H]2c3ccccc3Oc3ccc(Cl)cc3[C@@H]2C1 (relative stereo) [Asenapine maleate, (3aRS,12bRS)-rel-5-Chloro-2,3,3a,12b-tetrahydro-2-methyl-1H-dibenz[2,3:6,7]oxepino[4,5-c]pyrrole] | – | Solubility ([2]; solvent Dimethylcarbonate): soluble; Solubility ([2]; solvent Glycofurol): soluble; Solubility ([2]; solvent Iso propanol): non-soluble; Solubility ([2]; solvent Isopropyl acetate): non-soluble; Solubility ([2]; solvent Isopropyl formate): soluble
17 | – | – | – | – | – | – | – | – | – | – | CC(C)OC=O [Isopropyl formate] | slow decomposition | –

Row | SMILES | Solubility ([2]; solvent Acetone) | Solubility ([2]; solvent Benzylalcohol) | Solubility ([2]; solvent DMSO) | Solubility ([2]; solvent EMK) | Solubility ([2]; solvent Ethanol) | Solubility ([2]; solvent Ethyl acetate) | Solubility ([2]; solvent Ethyl formate) | Solubility ([2]; solvent Methyl acetate) | Solubility ([2]; solvent NMP) | Solubility ([2]; solvent THF) | Solubility in water [1] | other results
18 | CNCC[C@H](Oc1cccc2ccccc12)c1cccs1 [Duloxetine HCl, (+)-(S)—N-Methyl-3-(naphthalen-1-yloxy)-3-(thiophen-2-yl)propan-1-amine] | non-soluble | soluble | soluble | non-soluble | soluble | non-soluble | non-soluble | non-soluble | soluble | soluble | – | Solubility ([2]; solvent Benzyl benzoate): non-soluble; Solubility ([2]; solvent Glycofurol): soluble; Solubility ([2]; solvent Methyl benzoate): non-soluble; Solubility ([2]; solvent Triacetin): non-soluble
